Laboratory results: PubChem BioAssay (NCI)
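These data come from cells grown in 96-well plates and exposed to compound for 48 hours at five concentrations. Definition used: TGI = concentration required for complete inhibition of growth.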

Assays:
Assay in all cases: NCI anticancer screen, dose series, 48 h
786-0 renal = test system: 786-0 renal
A549 NSCLC = test system: A549 NSCLC
ACHN renal = test system: ACHN renal
CAKI-1 renal = test system: CAKI-1 renal
CCRF-CEM leukemia = test system: CCRF-CEM leukemia
COLO 205 colon = test system: COLO 205 colon
DLD-1 colon = test system: DLD-1 colon
DMS 114 small cell lung = test system: DMS 114 small cell lung
EKVX NSCLC = test system: EKVX NSCLC
HCC-2998 colon = test system: HCC-2998 colon
HCT-116 colon = test system: HCT-116 colon
HCT-15 colon = test system: HCT-15 colon
HL-60(TB) leukemia = test system: HL-60(TB) leukemia
HOP-18 NSCLC = test system: HOP-18 NSCLC
HOP-62 NSCLC = test system: HOP-62 NSCLC
HOP-92 NSCLC = test system: HOP-92 NSCLC
HT29 colon = test system: HT29 colon
IGROV1 ovarian = test system: IGROV1 ovarian
K-562 leukemia = test system: K-562 leukemia
KM12 colon = test system: KM12 colon
KM20L2 colon = test system: KM20L2 colon
LOX IMVI melanoma = test system: LOX IMVI melanoma
LXFL 529 NSCLC = test system: LXFL 529 NSCLC
M14 melanoma = test system: M14 melanoma
M19-MEL melanoma = test system: M19-MEL melanoma
MALME-3M melanoma = test system: MALME-3M melanoma
MOLT-4 leukemia = test system: MOLT-4 leukemia
NCI-H226 lung = test system: NCI-H226 lung
NCI-H23 lung = test system: NCI-H23 lung
NCI-H460 lung = test system: NCI-H460 lung
NCI-H522 lung = test system: NCI-H522 lung
OVCAR-3 ovarian = test system: OVCAR-3 ovarian
OVCAR-4 ovarian = test system: OVCAR-4 ovarian
OVCAR-5 ovarian = test system: OVCAR-5 ovarian
OVCAR-8 ovarian = test system: OVCAR-8 ovarian
RPMI-8226 leukemia = test system: RPMI-8226 leukemia
RXF-631 renal = test system: RXF-631 renal
SF-268 CNS = test system: SF-268 CNS
SF-295 CNS = test system: SF-295 CNS
SF-539 CNS = test system: SF-539 CNS
SK-MEL-2 melanoma = test system: SK-MEL-2 melanoma
SK-MEL-28 melanoma = test system: SK-MEL-28 melanoma
SK-MEL-5 melanoma = test system: SK-MEL-5 melanoma
SK-OV-3 ovarian = test system: SK-OV-3 ovarian
SNB-19 CNS = test system: SNB-19 CNS
SNB-75 CNS = test system: SNB-75 CNS
SNB-78 CNS = test system: SNB-78 CNS
SR leukemia = test system: SR leukemia
SW-620 colon = test system: SW-620 colon
TK-10 renal = test system: TK-10 renal
U251 CNS = test system: U251 CNS
UACC-257 melanoma = test system: UACC-257 melanoma
UACC-62 melanoma = test system: UACC-62 melanoma
UO-31 renal = test system: UO-31 renal
XF 498 CNS = test system: XF 498 CNS
A498 renal = test system: A498 renal
DMS 273 small cell lung = test system: DMS 273 small cell lung
RXF 393 renal = test system: RXF 393 renal
SN12C renal = test system: SN12C renal

COC(=O)c1cc(O)ccc1NC(=O)c1ccc(O)cc1
TGI (786-0 renal): > 100 µM | TGI (A549 NSCLC): > 100 µM | TGI (ACHN renal): > 100 µM | TGI (CAKI-1 renal): > 100 µM | TGI (CCRF-CEM leukemia): > 100 µM | TGI (COLO 205 colon): > 100 µM | TGI (DLD-1 colon): > 100 µM | TGI (DMS 114 small cell lung): > 100 µM | TGI (EKVX NSCLC): > 100 µM | TGI (HCC-2998 colon): > 100 µM | TGI (HCT-116 colon): > 100 µM | TGI (HCT-15 colon): > 100 µM | TGI (HL-60(TB) leukemia): > 100 µM | TGI (HOP-18 NSCLC): > 100 µM | TGI (HOP-62 NSCLC): > 100 µM | TGI (HOP-92 NSCLC): > 100 µM | TGI (HT29 colon): > 100 µM | TGI (IGROV1 ovarian): > 100 µM | TGI (K-562 leukemia): > 100 µM | TGI (KM12 colon): > 100 µM | TGI (KM20L2 colon): > 100 µM | TGI (LOX IMVI melanoma): > 100 µM | TGI (LXFL 529 NSCLC): > 100 µM | TGI (M14 melanoma): > 100 µM | TGI (M19-MEL melanoma): > 100 µM | TGI (MALME-3M melanoma): > 100 µM | TGI (MOLT-4 leukemia): > 100 µM | TGI (NCI-H226 lung): > 100 µM | TGI (NCI-H23 lung): > 100 µM | TGI (NCI-H460 lung): > 100 µM | TGI (NCI-H522 lung): > 100 µM | TGI (OVCAR-3 ovarian): > 100 µM | TGI (OVCAR-4 ovarian): > 100 µM | TGI (OVCAR-5 ovarian): > 100 µM | TGI (OVCAR-8 ovarian): > 100 µM | TGI (RPMI-8226 leukemia): > 100 µM | TGI (RXF-631 renal): > 100 µM | TGI (SF-268 CNS): > 100 µM | TGI (SF-295 CNS): > 100 µM | TGI (SF-539 CNS): > 100 µM | TGI (SK-MEL-2 melanoma): > 100 µM | TGI (SK-MEL-28 melanoma): > 100 µM | TGI (SK-MEL-5 melanoma): > 100 µM | TGI (SK-OV-3 ovarian): > 100 µM | TGI (SNB-19 CNS): > 100 µM | TGI (SNB-75 CNS): > 100 µM | TGI (SNB-78 CNS): > 100 µM | TGI (SR leukemia): > 100 µM | TGI (SW-620 colon): > 100 µM | TGI (TK-10 renal): > 100 µM | TGI (U251 CNS): > 100 µM | TGI (UACC-257 melanoma): > 100 µM | TGI (UACC-62 melanoma): > 100 µM | TGI (UO-31 renal): > 100 µM | TGI (XF 498 CNS): > 100 µM

COC(=O)/C(Cl)=C1/CC1COCc1ccccc1 (centres undefined)
TGI (786-0 renal): 42.2 µM | TGI (A498 renal): 96.9 µM | TGI (A549 NSCLC): > 100 µM | TGI (ACHN renal): 81.6 µM | TGI (CAKI-1 renal): 52.4 µM | TGI (CCRF-CEM leukemia): 43.5 µM | TGI (COLO 205 colon): 44.4 µM | TGI (DLD-1 colon): 45.8 µM | TGI (DMS 114 small cell lung): 81.2 µM | TGI (DMS 273 small cell lung): 54.9 µM | TGI (EKVX NSCLC): > 10 µM | TGI (HCC-2998 colon): > 10 µM | TGI (HCT-15 colon): 35.8 µM | TGI (HL-60(TB) leukemia): 38.7 µM | TGI (HOP-62 NSCLC): > 100 µM | TGI (HOP-92 NSCLC): 50.4 µM | TGI (HT29 colon): 58 µM | TGI (IGROV1 ovarian): > 100 µM | TGI (K-562 leukemia): 49.9 µM | TGI (KM12 colon): 77.4 µM | TGI (KM20L2 colon): > 100 µM | TGI (LOX IMVI melanoma): > 10 µM | TGI (LXFL 529 NSCLC): 31.1 µM | TGI (M14 melanoma): 31.2 µM | TGI (M19-MEL melanoma): 93.2 µM | TGI (MALME-3M melanoma): 83.1 µM | TGI (MOLT-4 leukemia): 53.5 µM | TGI (NCI-H226 lung): 81.9 µM | TGI (NCI-H23 lung): 88.2 µM | TGI (NCI-H460 lung): > 100 µM | TGI (NCI-H522 lung): 40.5 µM | TGI (OVCAR-3 ovarian): 52.5 µM | TGI (OVCAR-4 ovarian): 84.2 µM | TGI (OVCAR-5 ovarian): > 100 µM | TGI (OVCAR-8 ovarian): > 100 µM | TGI (RPMI-8226 leukemia): 58.3 µM | TGI (RXF 393 renal): 37.8 µM | TGI (SF-268 CNS): > 100 µM | TGI (SF-295 CNS): > 100 µM | TGI (SF-539 CNS): 49.8 µM | TGI (SK-MEL-2 melanoma): 96.9 µM | TGI (SK-MEL-28 melanoma): 47.4 µM | TGI (SK-MEL-5 melanoma): 54.7 µM | TGI (SK-OV-3 ovarian): > 100 µM | TGI (SN12C renal): > 100 µM | TGI (SNB-19 CNS): > 100 µM | TGI (SNB-75 CNS): > 100 µM | TGI (SNB-78 CNS): > 100 µM | TGI (SW-620 colon): 45.1 µM | TGI (TK-10 renal): > 100 µM | TGI (UACC-257 melanoma): > 100 µM | TGI (UACC-62 melanoma): 66.8 µM | TGI (UO-31 renal): 67.5 µM | TGI (XF 498 CNS): 58.4 µM
